Laboratory results from patent US7285564B2, “Substituted 4-amino-1-(pyridylmethyl)piperidine and related compounds” (Theravance, Inc., priority 2002, dated 2007).

Molecular target: T1, hM2 muscarinic receptor subtype (Homo sapiens, UniProt P08172)
T1 construct: expressed in transfected cells; membranes prepared
T1 sequence (P08172 1-466): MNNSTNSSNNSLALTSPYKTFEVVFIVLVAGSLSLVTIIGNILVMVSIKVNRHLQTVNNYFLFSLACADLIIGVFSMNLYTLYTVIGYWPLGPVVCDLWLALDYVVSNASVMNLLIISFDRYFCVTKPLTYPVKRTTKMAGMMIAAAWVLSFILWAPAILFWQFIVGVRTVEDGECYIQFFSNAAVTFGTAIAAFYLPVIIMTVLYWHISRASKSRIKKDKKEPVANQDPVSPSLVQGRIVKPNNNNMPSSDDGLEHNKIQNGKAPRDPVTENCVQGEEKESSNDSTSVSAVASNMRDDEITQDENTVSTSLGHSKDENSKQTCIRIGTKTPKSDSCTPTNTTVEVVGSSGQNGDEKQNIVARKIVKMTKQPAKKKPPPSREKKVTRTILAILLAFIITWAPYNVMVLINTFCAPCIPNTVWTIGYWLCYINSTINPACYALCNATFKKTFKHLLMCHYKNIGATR
Assay: Radioligand binding assay ([3H]NMS displacement), hM2
Details: [3H]NMS at 1 nM; membranes of CHO cells expressing hM2
Procedure: CHO (Chinese hamster ovary) cell lines stably expressing cloned human hM1, hM2, hM3 and hM4 muscarinic receptor subtypes, respectively, were grown to near confluency in medium consisting of HAM's F-12 supplemented with 10% FBS (Fetal Bovine Serum) and 250 μg/mL Geneticin. The cells were grown in a 5% CO2, 37° C. incubator and lifted with dPBS+2 mM EDTA. Cells were collected by 5 minute centrifugation at 650×g, and cell pellets were either stored frozen at −80° C. or membranes were prepared immediately. For membrane preparation, cell pellets were resuspended in lysis buffer and homogenized with a Polytron PT-2100 tissue disrupter (Kinematica AG; 20 seconds×2 bursts). Crude membranes were centrifuged at 40,000×g for 15 minutes at 4° C. […] Protein concentration of the membrane suspension was determined by the method of Lowry, O. et al., (1951) […]: 193, 265. […]
Radioligand binding assays were performed in 96-well microtiter plates in a total assay volume of 100 μL. […] Filter plates were rinsed three times with wash buffer (10 mM HEPES) to remove unbound radioactivity. […] The plates were then counted in a PerkinElmer Topcount liquid scintillation counter (PerkinElmer Inc., Wellesley, Mass.). Binding data were analyzed by nonlinear regression analysis with the GraphPad Prism Software package (GraphPad Software, Inc., San Diego, Calif.) using the one-site competition model. […]

Ki: < 1 nM
SMILES: COc1ccncc1CN1CCC(N(CCCCCCCN2CC[C@@H](C(C(N)=O)(c3ccccc3)c3ccccc3)C2)C(C)C)CC1 [Example 1]
